Experimental data from patent publication US4451284A, “Derivatives of 2-nitro-4- or -5-pyridyloxyphenylphosphonic acid, the preparation thereof, the use thereof as herbicides and/or plant growth regulators” (Ciba-Geigy Corporation, priority 1981, dated 1984).

Legend:
wheat [1] = test: Stimulation of root growth in wheat (plastic cylinders, 10 days); format: in vivo; conditions: seed treatment 4-130 mg per kg of seeds or soil spray 0.3 to 3 kg/ha; after 10 days
Protocol: Compounds of formula I are applied in the form of aqueous dispersions prepared from a 25% wettable powder. The test is carried out with seeds which are sown in plastic cylinders measuring 5×30 cm and filled with soil (10 seeds per cylinder). The seeds are (a) treated before sowing at rates of application of 4-130 mg per kg of seeds or (b) are untreated and the soil is sprayed with a dispersion of the active ingredient at rates of application of 0.3 to 3 kg/ha. The cylinders are kept under controlled conditions in a climatic chamber. After 10 days, the seedlings are carefully washed with water to remove the soil and the length and dry weight of the roots are assessed.

wheat [2] = test: Stimulation of root growth in wheat (plastic boxes, 30 days); format: in vivo; conditions: for root dry weight expressed as % of controls / root length expressed as % of controls: 30 days, controls = 100%
Protocol: (§1) Compounds of formula I are employed in the form of aqueous dispersions prepared from a 25% wettable powder. The test is carried out with seeds which are sown in plastic boxes measuring 5×35×60 cm and filled with soil (15 seeds per box). The seeds are treated before sowing at rates of application of 45-500 mg per kg of seeds. The boxes are kept under controlled conditions in a climatic chamber. After 30 days, the plants are carefully washed with water to remove the soil and the length and dry weight of the roots are assessed.

cotton = test: Stimulation of root growth in cotton (plastic boxes, 30 days); format: in vivo; conditions: for root dry weight expressed as % of controls / root length expressed as % controls: 30 days, controls = 100%
Protocol: as §1

mould fungi = test: Action against mould fungus on moist maize; format: in vivo, mixed population of mould fungi; conditions: for reduction of fungus attack compared with untreated controls: 0.06% a.i.
Source text: Dry maize grains (portions of 80 g each) are thoroughly mixed in sealable plastic beakers with an aqueous suspension prepared from a 25% wettable powder formulation of a compound of formula I. The application is so adjusted as to give a concentration of 0.06% of active ingredient, based on the weight of dry maize. A moistened slip of paper provides for a saturated humid atmosphere in the beakers which are filled with maize and then sealed. A mixed population of mould fungi develops spontaneously after incubation for 2-3 weeks at about 20° C. in the maize samples which have been treated only with water. The effectiveness of the test compounds is assessed by evaluating the degree of fungus development after 3 weeks.
A visual assessment is made after each month according to the same criteria as specified above.

soya bean plants = test: Regulation of the growth of soya bean plants; conditions: controls = 100%
[3] = seed treatment 45-500 mg per kg of seeds, after 30 days

With `O=[N+]([O-])c1ccc(Oc2ccc(C(F)(F)F)cn2)cc1P(=O)(O)O` [Compound 3] the “root growth stimulation effectiveness in words” value (wheat [1]) was “very effective”, the “root dry weight expressed as % of controls” value (wheat [2]; 45 mg a.i./kg of seeds) was 105 % of controls and the “root length expressed as % of controls” value (wheat [2]; 45 mg a.i./kg of seeds) was 98 % of controls. The “root dry weight expressed as % of controls” value (wheat [2]; 150 mg a.i./kg of seeds) was 112 % of controls, the “root length expressed as % of controls” value (wheat [2]; 150 mg a.i./kg of seeds) was 107 % of controls and the “root dry weight expressed as % of controls” value (wheat [2]; 500 mg a.i./kg of seeds) was 110 % of controls. For the same molecule, the “root length expressed as % of controls” value (wheat [2]; 500 mg a.i./kg of seeds) was 107 % of controls, the “root growth stimulation effectiveness in words” value (wheat [2]; [3]) was “every effective” and the “root dry weight expressed as % of controls” value (cotton; 45 mg a.i./kg of seeds) was 105 % of controls. The “root length expressed as % controls” value (cotton; 45 mg a.i./kg of seeds) was 122 % controls, the “root dry weight expressed as % of controls” value (cotton; 150 mg a.i./kg of seeds) was 97 % of controls and the “root length expressed as % controls” value (cotton; 150 mg a.i./kg of seeds) was 111 % controls. The “root dry weight expressed as % of controls” value (cotton; 500 mg a.i./kg of seeds) was 129 % of controls, the “root length expressed as % controls” value (cotton; 500 mg a.i./kg of seeds) was 122 % controls and the “root growth stimulation effectiveness in words” value (cotton; [3]) was “every effective”. The “reduction of fungus attack compared with untreated controls” value (shortened to “reduction of fungus attack”) (mould fungi; after 3 weeks) was 80-95%, the “reduction of fungus attack” value (mould fungi; after 3 weeks and a further month) was 80-95% and the “reduction of fungus attack” value (mould fungi; after 3 weeks, a further month and yet a further month) was 50-80%. The “fungicidal activity in words” value (mould fungi; 0.06% of active ingredient on dry maize) was “particularly pronounced fungicidal activity”, the “Weight of pods as % of controls” value (soya bean plants; 0.08 kg a.i./ha) was 119 % of controls and the “no. of pods as % of controls” value (soya bean plants; 0.08 kg a.i./ha) was 107 % of controls. The “Weight of pods as % of controls” value (soya bean plants; 0.40 kg a.i./ha) was 119 % of controls, the “no. of pods as % of controls” value (soya bean plants; 0.40 kg a.i./ha) was 119 % of controls and the “Weight of pods as % of controls” value (soya bean plants; 0.80 kg a.i./ha) was 135 % of controls. The “no. of pods as % of controls” value (soya bean plants; 0.80 kg a.i./ha) was 109 % of controls, the “Weight of pods as % of controls” value (soya bean plants; 4.00 kg a.i./ha) was 108 % of controls and the “no. of pods as % of controls” value (soya bean plants; 4.00 kg a.i./ha) was 98 % of controls.
